Test results reported in patent US20240116988A1, “ANTI-ROR1 MACROCYCLIC PEPTIDES AND COMPOSITIONS” (BRISTOL-MYERS SQUIBB COMPANY, priority 2022, published 2024).
pIC50: −log10 of the molar value. Positions of bridges follow the written chain, without caps; N, C: chain ends. Non-standard residues stand in square brackets, D forms with d. Residues, ends and D or L forms follow the SMILES beside them. ξ: configuration not given here. NMeF = CN[C@@H](Cc1ccccc1)C(=O)O; NMeL = CN[C@@H](CC(C)C)C(=O)O; NMeNle = CCCC[C@H](NC)C(=O)O; PEG3 = NCCOCCOCCOCCC(=O)O; NMeA = CN[C@@H](C)C(=O)O; Nle = CCCC[C@H](N)C(=O)O; ξD = NC(CC(=O)O)C(=O)O; AEEA = NCCOCCOCC(=O)O

Each compound was assayed against T1, human ROR1 (Homo sapiens, UniProt Q01973) (assay: ROR1 high content cell-based binding assay). Settings: read-out: ROR1 Binding 293T Human HC Cell Based Assay IC50.
T1 construct: host or cells: HEK 293T cells, Tet-on system induced with doxycycline
T1 sequence (Q01973 30-937): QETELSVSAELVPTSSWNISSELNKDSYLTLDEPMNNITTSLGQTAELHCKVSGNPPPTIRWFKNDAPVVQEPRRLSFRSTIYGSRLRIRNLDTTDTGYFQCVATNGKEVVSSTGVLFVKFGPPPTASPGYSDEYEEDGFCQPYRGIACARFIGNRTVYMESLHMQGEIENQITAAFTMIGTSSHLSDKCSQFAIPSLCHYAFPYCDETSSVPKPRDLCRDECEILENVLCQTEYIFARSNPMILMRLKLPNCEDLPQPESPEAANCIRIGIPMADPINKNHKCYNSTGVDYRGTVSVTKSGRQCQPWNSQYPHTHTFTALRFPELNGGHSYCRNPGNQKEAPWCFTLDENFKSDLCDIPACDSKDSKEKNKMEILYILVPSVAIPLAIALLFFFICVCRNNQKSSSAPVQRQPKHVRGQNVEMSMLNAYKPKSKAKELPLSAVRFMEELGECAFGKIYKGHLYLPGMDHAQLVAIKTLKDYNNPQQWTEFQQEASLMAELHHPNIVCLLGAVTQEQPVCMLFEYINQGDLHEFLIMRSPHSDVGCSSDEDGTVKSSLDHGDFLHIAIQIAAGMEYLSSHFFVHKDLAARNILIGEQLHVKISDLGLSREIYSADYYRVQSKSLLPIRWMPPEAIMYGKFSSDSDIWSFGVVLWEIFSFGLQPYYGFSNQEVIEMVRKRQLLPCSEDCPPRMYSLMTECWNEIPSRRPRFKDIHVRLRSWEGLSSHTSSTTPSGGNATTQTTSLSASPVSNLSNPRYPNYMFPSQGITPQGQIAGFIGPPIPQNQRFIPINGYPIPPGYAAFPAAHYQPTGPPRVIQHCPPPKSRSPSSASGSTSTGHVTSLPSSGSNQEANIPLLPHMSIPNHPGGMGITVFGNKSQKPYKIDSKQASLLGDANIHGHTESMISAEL
Protocol: ROR1 high content cell-based binding assay: Human embryonic kidney 293T cells (293T) expressing human ROR1 with Tet-on system by doxycycline were used (Arctic-488134) for the assessment of inhibition of the binding of fluorescently-labeled competing peptide (“Probe”) that specifically binds to human ROR1. […] Cryopreserved vials were thawed in a 37° C. water bath. Cells were washed in assay culture media [DMEM (Life Technologies Inc. Cat. […] Cat. No. 15140-122) and […] dox] and diluted 1.0×10^5 cells/mL. Cells were seeded into PDL-coated 384 well plates (BD Falcon Cat. No. 356663) at 2,000 cells/20 μL. Plates were allowed to incubate for 10 minutes at room temperature and then transferred to a 37° C./5% CO2 incubator for overnight incubation. The next day, 125 nL of the test compound was added using an ECHO followed by the addition of 5 μL/well of 5-FAM-labeled probe to cells at a final concentration of 30 nM. Sample were incubated for 1 hour at 37° C. for 1 hour, followed by 3 washes in […] of dPBS. Cells were fixed by adding 8% (w/v) formaldehyde (Sigma Cat. No. 252549), 20 μg/mL Hoechst (Thermo Scientific Cat. No. 62249) in PBS for 20 minutes at room temperature. The plates were washed 3 more times in dPBS and 15 μl of PBS was left in the wells following the last wash. The plates were sealed, and data was using obtained using a CellInsight NXT High Content Screening Platform IC903000 (Thermo Scientific).

Structure (SMILES) | pIC50
CC(C)C[C@@H]1NC(=O)[C@H](Cc2ccc(O)cc2)NC(=O)[C@H](Cc2ccccc2)NC(=O)CSC[C@@H](C(=O)NCC(N)=O)NC(=O)[C@H](CC(C)C)NC(=O)[C@H](Cc2ccccc2)N(C)C(=O)[C@H](Cc2ccc(O)cc2)NC(=O)[C@H](Cc2c[nH]c3ccccc23)NC(=O)CNC(=O)[C@H](Cc2ccc(O)cc2)NC(=O)[C@H](CCCNC(=N)N)NC(=O)[C@H](C(C)C)NC1=O [Example 1055] ({CH2CO}-FYLVRYGWY[NMeF]LCG-NH2; thioether N-12) | 7.54
CC(C)C[C@@H]1NC(=O)CNC(=O)[C@H](Cc2ccccc2)NC(=O)CSC[C@@H](C(=O)NCC(N)=O)NC(=O)[C@H](CC(C)C)NC(=O)[C@H](Cc2ccccc2)N(C)C(=O)[C@H](Cc2ccc(O)cc2)NC(=O)[C@H](Cc2c[nH]c3ccccc23)NC(=O)CNC(=O)[C@H](CO)NC(=O)[C@H](Cc2ccc(O)cc2)NC(=O)[C@H](C(C)C)NC1=O [Example 1068] ({CH2CO}-FGLVYSGWY[NMeF]LCG-NH2; thioether N-12) | 6.34
CC(C)C[C@@H]1NC(=O)[C@H](Cc2c[nH]c3ccccc23)NC(=O)[C@H](C(C)C)NC(=O)CNC(=O)[C@H](CO)NC(=O)[C@H](Cc2ccccc2)N(C)C(=O)[C@H](Cc2ccc(O)cc2)NC(=O)[C@H](Cc2ccc(O)cc2)NC(=O)[C@@H](Cc2ccccc2)NC(=O)CSC[C@@H](C(=O)NCC(N)=O)NC(=O)[C@H](C(C)C)NC(=O)[C@H](Cc2ccc(O)cc2)NC1=O [Example 1000] ({CH2CO}-[dF]YY[NMeF]SGVWLYVCG-NH2; thioether N-12) | 7.96
CC(C)C[C@@H]1NC(=O)[C@H](Cc2ccc(O)cc2)NC(=O)[C@H](Cc2ccccc2)N(C)C(=O)CNC(=O)[C@H](Cc2ccc(O)cc2)NC(=O)[C@H](Cc2ccccc2)NC(=O)CSC[C@@H](C(N)=O)NC(=O)[C@H](Cc2c[nH]c3ccccc23)NC(=O)[C@H](Cc2ccc(O)cc2)NC1=O [Example 1115] ({CH2CO}-FYG[NMeF]YLYWC-NH2; thioether N-9) | 7.03
CC(C)C[C@@H]1NC(=O)[C@H](Cc2ccc(O)cc2)NC(=O)[C@@H]2CCCN2C(=O)CSC[C@@H](C(=O)NCC(N)=O)NC(=O)[C@H](CC(C)C)NC(=O)[C@H](Cc2ccccc2)N(C)C(=O)[C@H](Cc2ccc(O)cc2)NC(=O)[C@H](Cc2c[nH]c3ccccc23)NC(=O)CNC(=O)[C@H](CO)NC(=O)[C@H](Cc2ccc(O)cc2)NC(=O)[C@H](C(C)C)NC1=O [Example 1067] ({CH2CO}-PYLVYSGWY[NMeF]LCG-NH2; thioether N-12) | 6.29
CSCC[C@@H]1NC(=O)[C@H](Cc2ccccc2)N(C)C(=O)CNC(=O)[C@H](Cc2ccc(O)cc2)NC(=O)[C@H](Cc2ccccc2)NC(=O)CSC[C@@H](C(N)=O)NC(=O)[C@H](Cc2c[nH]c3ccccc23)NC(=O)[C@H](Cc2ccc(O)cc2)NC(=O)[C@H](CC(C)C)NC1=O [Example 1109] ({CH2CO}-FYG[NMeF]MLYWC-NH2; thioether N-9) | 6.24
CCCC[C@H]1C(=O)N[C@@H](CC(C)C)C(=O)N[C@H](C(=O)NCCOCCOCC(=O)N[C@@H](CCCCN)C(N)=O)CSCC(=O)N[C@@H](Cc2ccccc2)C(=O)N[C@@H](Cc2ccc(O)cc2)C(=O)N[C@@H](Cc2c[nH]c3ccccc23)C(=O)N[C@@H](CO)C(=O)N[C@@H](CO)C(=O)N[C@@H](CCCNC(=N)N)C(=O)N(C)[C@@H](C)C(=O)N[C@@H](Cc2c[nH]c3ccccc23)C(=O)N[C@@H](Cc2ccc(O)cc2)C(=O)N1C [Example 1079] ({CH2CO}-FYWSSR[NMeA]WY[NMeNle]LC[AEEA]K-NH2; thioether N-12) | 7.60
CC(C)C[C@@H]1NC(=O)[C@H](Cc2ccc(O)cc2)NC(=O)[C@H](Cc2ccccc2)NC(=O)CSC[C@@H](C(=O)NCC(N)=O)NC(=O)[C@H](CC(C)C)NC(=O)[C@H](Cc2ccccc2)N(C)C(=O)[C@H](Cc2ccc(O)cc2)NC(=O)[C@H](Cc2c[nH]c3ccccc23)NC(=O)[C@H](CCCNC(=N)N)NC(=O)[C@H](CO)NC(=O)[C@H](Cc2ccc(O)cc2)NC(=O)[C@H](C(C)C)NC1=O [Example 1047] ({CH2CO}-FYLVYSRWY[NMeF]LCG-NH2; thioether N-12) | 6.61
CC(C)C[C@@H]1NC(=O)CSC[C@@H](C(=O)NCC(N)=O)NC(=O)[C@H](CC(C)C)NC(=O)[C@H](Cc2ccccc2)N(C)C(=O)[C@H](Cc2ccc(O)cc2)NC(=O)[C@H](Cc2c[nH]c3ccccc23)NC(=O)CNC(=O)[C@H](CO)NC(=O)[C@H](Cc2ccc(O)cc2)NC(=O)[C@H](C(C)C)NC(=O)[C@H](CC(C)C)NC(=O)[C@H](Cc2ccc(O)cc2)NC1=O [Example 1072] ({CH2CO}-LYLVYSGWY[NMeF]LCG-NH2; thioether N-12) | 7.10
CC(C)C[C@@H]1NC(=O)[C@H](CC(N)=O)NC(=O)[C@H](Cc2ccccc2)N(C)C(=O)CNC(=O)[C@H](Cc2ccc(O)cc2)NC(=O)[C@H](Cc2ccc(O)cc2)NC(=O)CSC[C@@H](C(N)=O)NC(=O)[C@H](Cc2c[nH]c3ccccc23)NC(=O)[C@H](Cc2ccc(O)cc2)NC1=O [Example 1120] ({CH2CO}-YYG[NMeF]NLYWC-NH2; thioether N-9) | 6.10
CCCC[C@@H]1NC(=O)[C@H](Cc2ccc(O)cc2)NC(=O)[C@H](Cc2c[nH]c3ccccc23)NC(=O)[C@H](C)N(C)C(=O)[C@H](CCCNC(=N)N)NC(=O)[C@H](CO)NC(=O)[C@H](CO)NC(=O)[C@H](Cc2c[nH]c3ccccc23)NC(=O)[C@H](Cc2ccc(O)cc2)NC(=O)[C@H](Cc2ccccc2)NC(=O)CSC[C@@H](C(N)=O)NC(=O)[C@H](CC(C)C)N(C)C1=O [Example 1096] ({CH2CO}-FYWSSR[NMeA]WY[Nle][NMeL]C-NH2; thioether N-12) | 8.40

Now from value to compound:

pIC50 | Structure (SMILES)
7.74 | CC(C)C[C@@H]1NC(=O)[C@H](Cc2ccc(O)cc2)NC(=O)[C@H](Cc2ccccc2)NC(=O)CSC[C@@H](C(=O)NCCOCCOCCOCCC(=O)N[C@@H](CCCCN)C(N)=O)NC(=O)[C@H](CC(C)C)NC(=O)[C@H](Cc2ccccc2)N(C)C(=O)[C@H](Cc2ccc(O)cc2)NC(=O)[C@H](Cc2c[nH]c3ccccc23)NC(=O)CNC(=O)[C@H](CO)NC(=O)[C@H](Cc2ccc(O)cc2)NC(=O)[C@H](C(C)C)NC1=O [Example 1085] ({CH2CO}-FYLVYSGWY[NMeF]LC[PEG3]K-NH2; thioether N-12)
8.70 | CC(C)C[C@@H]1NC(=O)[C@H](Cc2ccc(O)cc2)NC(=O)[C@H](Cc2c[nH]c3ccccc23)NC(=O)CSC[C@@H](C(=O)NCC(N)=O)NC(=O)[C@H](CC(C)C)NC(=O)[C@H](Cc2ccccc2)N(C)C(=O)[C@H](Cc2ccc(O)cc2)NC(=O)[C@H](Cc2c[nH]c3ccccc23)NC(=O)CNC(=O)[C@H](CO)NC(=O)[C@H](Cc2ccc(O)cc2)NC(=O)[C@H](C(C)C)NC1=O [Example 1077] ({CH2CO}-WYLVYSGWY[NMeF]LCG-NH2; thioether N-12)
7.51 | CC(C)C[C@@H]1NC(=O)[C@H](Cc2ccc(O)cc2)NC(=O)[C@H](Cc2ccccc2)NC(=O)CSC[C@@H](C(=O)NCC(N)=O)NC(=O)[C@H](C)NC(=O)[C@H](Cc2ccccc2)N(C)C(=O)[C@H](Cc2ccc(O)cc2)NC(=O)[C@H](Cc2c[nH]c3ccccc23)NC(=O)CNC(=O)[C@H](CO)NC(=O)[C@H](Cc2ccc(O)cc2)NC(=O)[C@H](C(C)C)NC1=O [Example 1042] ({CH2CO}-FYLVYSGWY[NMeF]ACG-NH2; thioether N-12)
7.77 | CC(C)C[C@@H]1NC(=O)[C@H](Cc2ccccc2)N(C)C(=O)[C@H](Cc2ccc(O)cc2)NC(=O)[C@H](Cc2c[nH]c3ccccc23)NC(=O)CNC(=O)[C@H](CO)NC(=O)[C@H](Cc2ccc(O)cc2)NC(=O)[C@H](C(C)C)NC(=O)[C@H](C)NC(=O)[C@H](Cc2ccc(O)cc2)NC(=O)[C@H](Cc2ccccc2)NC(=O)CSC[C@@H](C(=O)NCC(N)=O)NC1=O [Example 1040] ({CH2CO}-FYAVYSGWY[NMeF]LCG-NH2; thioether N-12)
6.72 | CC(C)C[C@@H]1NC(=O)[C@H](Cc2ccc(O)cc2)NC(=O)[C@H](Cc2ccccc2)N(C)C(=O)CSC[C@@H](C(=O)NCC(N)=O)NC(=O)[C@H](CC(C)C)NC(=O)[C@H](Cc2ccccc2)N(C)C(=O)[C@H](Cc2ccc(O)cc2)NC(=O)[C@H](Cc2c[nH]c3ccccc23)NC(=O)CNC(=O)[C@H](CO)NC(=O)[C@H](Cc2ccc(O)cc2)NC(=O)[C@H](C(C)C)NC1=O [Example 1082] ({CH2CO}-[NMeF]YLVYSGWY[NMeF]LCG-NH2; thioether N-12)
7.47 | CC(C)C[C@@H]1NC(=O)[C@H](Cc2ccc(O)cc2)NC(=O)[C@H](Cc2ccccc2)NC(=O)CSC[C@@H](C(=O)NCC(N)=O)NC(=O)[C@H](CC(C)C)NC(=O)[C@H](Cc2ccccc2)N(C)C(=O)[C@H](Cc2ccc(O)cc2)NC(=O)[C@H](Cc2c[nH]c3ccccc23)NC(=O)CNC(=O)CNC(=O)[C@H](Cc2ccc(O)cc2)NC(=O)[C@H](C(C)C)NC1=O [Example 1022] ({CH2CO}-FYLVYGGWY[NMeF]LCG-NH2; thioether N-12)
7.27 | CC(C)C[C@@H]1NC(=O)[C@H](Cc2c[nH]c3ccccc23)NC(=O)[C@H](Cc2ccc(O)cc2)NC(=O)[C@H](Cc2c[nH]c3ccccc23)NC(=O)CNC(=O)C(CC(=O)O)NC(=O)[C@H](Cc2ccc(O)cc2)NC(=O)[C@H](C(C)C)NC(=O)[C@@H]2CCCN2C(=O)[C@H](Cc2ccc(O)cc2)NC(=O)[C@H](Cc2ccccc2)NC(=O)CSC[C@@H](C(=O)NCC(N)=O)NC1=O (stereo partly drawn) [Example 1009] ({CH2CO}-FYPVY[ξD]GWYWLCG-NH2; thioether N-12)
